Patent publication US6753295B1, “Plant activator, process for producing the same, activation method, activity promoter and method for applying the promoter” (Hokkaido Green Kosan, Incorporated, priority 1999, dated 2004)

Tests used:
Format in all cases: cell-based
Erwinia sp. = experiment: paper disk bioassay of the purified product against bacteria; details: 1000, 500 and 250 ppm; 37° C., 18 hours
Method: (§1) An agar medium containing a test bacterium was placed in a Petri dish and fixed therein. A paper disk containing the sample was placed thereon and incubated at 37° C. for 18 hours, and formation of a circle of inhibited growth was confirmed.
(§2) The following 4 strains were used: Staphylococcus aureus 209P, Pseudomonas syringal, Xanthomonoas Campestris pv. citri, and Erwinia sp.
(§3) For pre-culture, a bouillon medium (DIFCO) was used, and after overnight cultivation, the cultivation medium was diluted at ×10^2 and mixed with 0.5% upper-layer medium. As the medium for measuring the bacterium, Mycin agar (Mikumi Kagaku) was used.
(§4) Upper layer−1.5% Mycin agar (Mikuni Kagaku)+0.5% Mycin agar mixed with the overnight cultivation (diluted at ×10^2) in 2% bouillon medium (DIFCO)
(§5) Lower layer−2.0% Mycin agar (Mikuni Kagaku)
(§6) A paper disk was impregnated with the isolated and purified product prepared at 1000 ppm, 500 ppm and 250 ppm respectively was air-dried, placed on the Petri dish and incubated at 37° C. for 18 hours, and whether a circle of inhibited growth was formed or not was observed.

Pseudomonas syringal = experiment: as above; details: 1000, 500 and 250 ppm; 37° C., 18 hours
Method: as §1, §2, §3, §4, §5, §6

[1] = test system: Staphylococcus aureus 209P; experiment: as above; details: 1000, 500 and 250 ppm; 37° C., 18 hours
Method: as §1, §2, §3, §4, §5, §6

[2] = test system: Xanthomonoas Campestris pv. citri; experiment: as above; details: 1000, 500 and 250 ppm; 37° C., 18 hours
Method: as §1, §2, §3, §4, §5, §6

E. coli NIHJ JC-2 = experiment: MIC, agar plate dilution method; details: E.coliNIHJ JC-2
Method: (§7) 22 strains in total, that is, 1 strain of S. aureus 209P JC-1, 20 strains of 1G-stored, clinically separated Staphylococcus (10 strains each of MSSA and MRSA), and 1 strain of E. coli NIHJ JC-2 as the standard strain.
(§8) MW:168, methicilin (DMPPC, staphcililn for injection, Lot. No. FSB […], Banyu Pharmaceutical Co., Ltd.), vancomycin (VCM, Lot. No. 41H0457, 10750, SIGMA).
(§9) Mueller-Hinton agar (MIA, Difco) was used for measurement of antimicrobial properties, and Mueller Hinton broth (MHB, Difco) was used for pre-cultivation.
(§10) The minimum inhibitory concentration (MIC) of each chemical against the used strain was determined according to an agar plate dilution method in accordance with the standard methods of Japanese Society of Chemotherapy. The strain was sprayed onto MHA and cultured at 37° C. overnight, and the resultant colonies were cultured in MHB at 37° C. overnight, and its microbial liquid was diluted 100-fold (1000-fold dilution for E. coli) and used as inoculation liquid.

S. aureus 209P JC-1 = experiment: MIC, agar plate dilution method; details: S.aureu209P JC-1
Method: as §7, §8, §9, §10

[3] = test system: clinically separated Staphylococcus (MSSA and MRSA); experiment: MIC, agar plate dilution method
Method: as §7, §8, §9, §10

O=C(O)/C=C/C1=CC(=O)CC1O (centres unmarked) [MW168, 3(3-hydroxy-cyclopropene 5-one-2-yl)2-propenoic acid]
circle of inhibited growth / activity against the bacteria (Erwinia sp.): no or less activity
circle of inhibited growth / activity against the bacteria (Pseudomonas syringal): no or less activity
circle of inhibited growth / activity against the bacteria [1]: no or less activity
circle of inhibited growth / activity against the bacteria [2]: no or less activity
MIC (E. coli NIHJ JC-2): >50 micro gram/ml
MIC (S. aureus 209P JC-1): >50 micro gram/ml
MIC ([3]; MRSA TH948): >50 micro gram/ml
MIC ([3]; MRSA TH949): >50 micro gram/ml
MIC ([3]; MRSA TH950): >50 micro gram/ml
MIC ([3]; MRSA TH951): >50 micro gram/ml
MIC ([3]; MRSA TH952): >50 micro gram/ml
MIC ([3]; MRSA TH953): >50 micro gram/ml
MIC ([3]; MRSA TH954): >50 micro gram/ml
MIC ([3]; MRSA TH955): >50 micro gram/ml
MIC ([3]; MRSA TH956): >50 micro gram/ml
MIC ([3]; MRSA TH957): >50 micro gram/ml
MIC ([3]; MRSA TH972): >50 micro gram/ml
MIC ([3]; MRSA TH973): >50 micro gram/ml
MIC ([3]; MRSA TH974): >50 micro gram/ml
MIC ([3]; MRSA TH975): >50 micro gram/ml
MIC ([3]; MRSA TH976): >50 micro gram/ml
MIC ([3]; MRSA TH1350): >50 micro gram/ml
MIC ([3]; MRSA TH1351): >50 micro gram/ml
MIC ([3]; MRSA TH1352): >50 micro gram/ml
MIC ([3]; MRSA TH1353): >50 micro gram/ml
MIC ([3]; MRSA TH1354): >50 micro gram/ml
antimicrobial properties against Staphylococcus ([3]; concentrations used 50˜0.10 micro gram/ml): no or less activity

COc1cccc(OC)c1C(=O)N[C@@H]1C(=O)N2[C@@H]1SC(C)(C)[C@@H]2C(=O)O [DMPP, methicilin]
MIC (E. coli NIHJ JC-2): 3.13 micro gram/ml
MIC (S. aureus 209P JC-1): 1.56 micro gram/ml
MIC ([3]; MRSA TH948): 1.56 micro gram/ml
MIC ([3]; MRSA TH949): 3.13 micro gram/ml
MIC ([3]; MRSA TH950): 3.13 micro gram/ml
MIC ([3]; MRSA TH951): 3.13 micro gram/ml
MIC ([3]; MRSA TH952): 1.56 micro gram/ml
MIC ([3]; MRSA TH953): 3.13 micro gram/ml
MIC ([3]; MRSA TH954): 3.13 micro gram/ml
MIC ([3]; MRSA TH955): 1.56 micro gram/ml
MIC ([3]; MRSA TH956): 3.13 micro gram/ml
MIC ([3]; MRSA TH957): 1.56 micro gram/ml
MIC ([3]; MRSA TH972): >12.5 micro gram/ml
MIC ([3]; MRSA TH973): >12.5 micro gram/ml
MIC ([3]; MRSA TH974): >12.5 micro gram/ml
MIC ([3]; MRSA TH975): >12.5 micro gram/ml
MIC ([3]; MRSA TH976): >12.5 micro gram/ml
MIC ([3]; MRSA TH1350): 12.5 micro gram/ml
MIC ([3]; MRSA TH1351): 6.25 micro gram/ml
MIC ([3]; MRSA TH1352): >12.5 micro gram/ml
MIC ([3]; MRSA TH1353): >12.5 micro gram/ml
MIC ([3]; MRSA TH1354): >12.5 micro gram/ml

CN[C@H](CC(C)C)C(=O)N[C@H]1C(=O)N[C@@H](CC(N)=O)C(=O)N[C@H]2C(=O)N[C@H]3C(=O)N[C@H](C(=O)N[C@H](C(=O)O)c4cc(O)cc(O)c4-c4cc3ccc4O)[C@H](O)c3ccc(c(Cl)c3)Oc3cc2cc(c3O[C@@H]2O[C@H](CO)[C@@H](O)[C@H](O)[C@H]2O[C@H]2C[C@](C)(N)[C@H](O)[C@H](C)O2)Oc2ccc(cc2Cl)[C@H]1O [VCM, vancomycin]
MIC (E. coli NIHJ JC-2): >6.25 micro gram/ml
MIC (S. aureus 209P JC-1): 0.78 micro gram/ml
MIC ([3]; MRSA TH948): 0.78 micro gram/ml
MIC ([3]; MRSA TH949): 0.78 micro gram/ml
MIC ([3]; MRSA TH950): 0.78 micro gram/ml
MIC ([3]; MRSA TH951): 0.78 micro gram/ml
MIC ([3]; MRSA TH952): 0.78 micro gram/ml
MIC ([3]; MRSA TH953): 0.78 micro gram/ml
MIC ([3]; MRSA TH954): 0.78 micro gram/ml
MIC ([3]; MRSA TH955): 0.78 micro gram/ml
MIC ([3]; MRSA TH956): 0.78 micro gram/ml
MIC ([3]; MRSA TH957): 0.78 micro gram/ml
MIC ([3]; MRSA TH972): 0.78 micro gram/ml
MIC ([3]; MRSA TH973): 0.78 micro gram/ml
MIC ([3]; MRSA TH974): 0.78 micro gram/ml
MIC ([3]; MRSA TH975): 0.78 micro gram/ml
MIC ([3]; MRSA TH976): 0.78 micro gram/ml
MIC ([3]; MRSA TH1350): 0.78 micro gram/ml
MIC ([3]; MRSA TH1351): 0.78 micro gram/ml
MIC ([3]; MRSA TH1352): 0.78 micro gram/ml
MIC ([3]; MRSA TH1353): 0.78 micro gram/ml
MIC ([3]; MRSA TH1354): 0.78 micro gram/ml
